Results published in ChEMBL document CHEMBL1147876, “Synthesis of novel 3-amino-2-(4-chloro-2-mercaptobenzenesulfonyl)-guanidine derivatives as potential antitumor agents” (Eur J Med Chem, 2007).
Activity calls are given as the source filed them.

Key:
Format in all cases: functional, cell-based
SF-268 = assay: Anticancer activity against human SF268 cells at 100 uM
MCF7 = assay: Anticancer activity against human MCF7 cells at 100 uM
NCI-H460 = assay: Anticancer activity against human NCI-H460 cells at 100 uM

Measured: Activity

C#CCN/C(=N/S(=O)(=O)c1cc(C)c(Cl)cc1SCC(N)=O)NN
inactive: SF-268 | MCF7 | NCI-H460

C=CCN/C(=N/S(=O)(=O)c1cc(C(=O)Nc2ccc(Cl)cc2)c(Cl)cc1SC)NN
inactive: SF-268 | MCF7 | NCI-H460

C#CCN/C(=N/S(=O)(=O)c1cc(C)c(Cl)cc1S)NN
inactive: SF-268 | MCF7 | NCI-H460

C#CCN/C(=N/S(=O)(=O)c1cc(C)c(Cl)cc1SCC(=O)c1ccccc1)NN
inactive: SF-268 | MCF7 | NCI-H460

C=CCN/C(=N/S(=O)(=O)c1cc(C)c(Cl)cc1SC)N/N=C/c1ccc([N+](=O)[O-])o1
inactive: SF-268 | MCF7 | NCI-H460

C#CCN/C(=N/S(=O)(=O)c1cc(C(=O)Nc2ccccc2)c(Cl)cc1S)NN
inactive: SF-268 | MCF7 | NCI-H460

C#CCN/C(=N/S(=O)(=O)c1cc(C)c(Cl)cc1SCC#N)NN
inactive: SF-268 | MCF7 | NCI-H460

C=CCN/C(=N/S(=O)(=O)c1cc(C(=O)Nc2ccccc2)c(Cl)cc1SCC(N)=O)NN
inactive: SF-268 | MCF7 | NCI-H460
